Data taken from the supplement of paper PMC10307832.

Assays:
Assay in all cases: relative viability (nuclei count vs DMSO), 5 days (fraction); higher = more cells survive
[1] = compound: C1COCCN1C2=CC(=O)C3=C(O2)C(=CC=C3)C4=CC=CC5=C4SC6=CC=CC=C56
How it was run: (§1)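 Five library-drug doses spaced by √10 were pinned onto vehicle-anchored 1536-well plates of lung cancer cell lines that had been kept overnight at 37 °C. Cells went 5 days without medium change, then were fixed, permeabilised and Hoechst-stained together, imaged at 4× and counted by MetaXpress. Viability is the ratio of treated-well to vehicle-well nuclei, taken as a median over plates. Plates required control CV below 25% and at least one doubling.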

[2] = compound: CCN(CC)CCCCNc1ncc2cc(-c3cc(OC)cc(OC)c3)c(NC(=O)NC(C)(C)C)nc2n1
How it was run: as §1

[3] = compound: COCC1(CO)C(=O)C2CCN1CC2 [PRIMA-1MET]
How it was run: as §1

[4] = compound: COc1nc(C)cnc1NS(=O)(=O)c1cccnc1-c1ccc(-c2nnco2)cc1 [Zibotentan]
How it was run: as §1

[5] = compound: O=c1cc(-c2cccc3c2Sc2ccccc2S3)oc(N2CCOCC2)c1
How it was run: as §1

NCI-H1703 was tested, and the relative viability ([1]; 0.01 µM) was 1.19, the relative viability ([1]; 0.03162 µM) was 0.926 and the relative viability ([1]; 0.1 µM) was 0.964. It also gave a relative viability ([1]; 0.3162 µM) of 0.958, a relative viability ([1]; 1 µM) of 0.861 and a relative viability ([2]; 0.01 µM) of 0.832. The relative viability ([2]; 0.03162 µM) was 0.854, the relative viability ([2]; 0.1 µM) was 1.19 and the relative viability ([2]; 0.3162 µM) was 1.04. For the same cell line, the relative viability ([2]; 1 µM) was 0.723, the relative viability ([3]; 0.2 µM) was 1.19 and the relative viability ([3]; 0.6325 µM) was 0.852. The relative viability ([3]; 2 µM) was 0.815, the relative viability ([3]; 6.325 µM) was 0.797 and the relative viability ([3]; 20 µM) was 0.0528. The relative viability ([4]; 0.08 µM) was 0.972, the relative viability ([4]; 0.253 µM) was 0.94 and the relative viability ([4]; 0.8 µM) was 1.25. It also gave a relative viability ([4]; 2.53 µM) of 0.505, a relative viability ([5]; 0.08 µM) of 0.718 and a relative viability ([5]; 0.253 µM) of 1.01. It also gave a relative viability ([5]; 0.8 µM) of 1.03, a relative viability ([5]; 2.53 µM) of 0.925 and a relative viability ([5]; 8 µM) of 0.843.
COR-L23 gave a relative viability ([1]; 0.01 µM) of 1, a relative viability ([1]; 0.03162 µM) of 1 and a relative viability ([1]; 0.1 µM) of 1.01. The relative viability ([1]; 0.3162 µM) was 1.02, the relative viability ([1]; 1 µM) was 1.06 and the relative viability ([2]; 0.01 µM) was 1.1. It also gave a relative viability ([2]; 0.03162 µM) of 1.14, a relative viability ([2]; 0.1 µM) of 1.33 and a relative viability ([2]; 0.3162 µM) of 1.16. For the same cell line, the relative viability ([2]; 1 µM) was 1.11, the relative viability ([3]; 0.2 µM) was 1.33 and the relative viability ([3]; 0.6325 µM) was 0.936. The relative viability ([3]; 2 µM) was 0.94, the relative viability ([3]; 6.325 µM) was 1.11 and the relative viability ([3]; 20 µM) was 0.0329. It also gave a relative viability ([4]; 0.08 µM) of 1.06, a relative viability ([4]; 0.253 µM) of 1.06 and a relative viability ([4]; 0.8 µM) of 1.01. The relative viability ([4]; 2.53 µM) was 1.03, the relative viability ([5]; 0.08 µM) was 1.03 and the relative viability ([5]; 0.253 µM) was 1.37. It also gave a relative viability ([5]; 0.8 µM) of 1.12, a relative viability ([5]; 2.53 µM) of 1.03 and a relative viability ([5]; 8 µM) of 1.14.
For NCI-H2228, the relative viability ([1]; 0.01 µM) was 1.25, the relative viability ([1]; 0.03162 µM) was 0.89 and the relative viability ([1]; 0.1 µM) was 0.981. The relative viability ([1]; 0.3162 µM) was 0.821, the relative viability ([1]; 1 µM) was 1.03 and the relative viability ([2]; 0.01 µM) was 0.984. For the same cell line, the relative viability ([2]; 0.03162 µM) was 1.06, the relative viability ([2]; 0.1 µM) was 1.26 and the relative viability ([2]; 0.3162 µM) was 1.16. The relative viability ([2]; 1 µM) was 0.941, the relative viability ([3]; 0.2 µM) was 0.99 and the relative viability ([3]; 0.6325 µM) was 0.964. For the same cell line, the relative viability ([3]; 2 µM) was 1.07, the relative viability ([3]; 6.325 µM) was 1.06 and the relative viability ([3]; 20 µM) was 0.0562. It also gave a relative viability ([4]; 0.08 µM) of 1.09, a relative viability ([4]; 0.253 µM) of 0.997 and a relative viability ([4]; 0.8 µM) of 0.956. It also gave a relative viability ([4]; 2.53 µM) of 0.994, a relative viability ([5]; 0.08 µM) of 1.04 and a relative viability ([5]; 0.253 µM) of 1.09. For the same cell line, the relative viability ([5]; 0.8 µM) was 1.02, the relative viability ([5]; 2.53 µM) was 1.07 and the relative viability ([5]; 8 µM) was 1.1.
NCI-H2342 showed a relative viability ([1]; 0.01 µM) of 1.01, a relative viability ([1]; 0.03162 µM) of 1.04 and a relative viability ([1]; 0.1 µM) of 0.955. It also gave a relative viability ([1]; 0.3162 µM) of 0.959, a relative viability ([1]; 1 µM) of 0.875 and a relative viability ([2]; 0.01 µM) of 0.932. For the same cell line, the relative viability ([2]; 0.03162 µM) was 0.899, the relative viability ([2]; 0.1 µM) was 0.971 and the relative viability ([2]; 0.3162 µM) was 1.09. For the same cell line, the relative viability ([2]; 1 µM) was 1.06, the relative viability ([3]; 0.2 µM) was 1.07 and the relative viability ([3]; 0.6325 µM) was 1.05. It also gave a relative viability ([3]; 2 µM) of 0.693, a relative viability ([3]; 6.325 µM) of 0.974 and a relative viability ([3]; 20 µM) of 0.915. It also gave a relative viability ([4]; 0.08 µM) of 0.937, a relative viability ([4]; 0.253 µM) of 0.945 and a relative viability ([4]; 0.8 µM) of 0.944. The relative viability ([4]; 2.53 µM) was 0.942, the relative viability ([5]; 0.08 µM) was 0.836 and the relative viability ([5]; 0.253 µM) was 1.07. The relative viability ([5]; 0.8 µM) was 0.964, the relative viability ([5]; 2.53 µM) was 0.982 and the relative viability ([5]; 8 µM) was 1.04.
NCI-H2009 was tested, and the relative viability ([1]; 0.01 µM) was 1.02, the relative viability ([1]; 0.03162 µM) was 0.995 and the relative viability ([1]; 0.1 µM) was 1.01. It also gave a relative viability ([1]; 0.3162 µM) of 0.982, a relative viability ([1]; 1 µM) of 0.927 and a relative viability ([2]; 0.01 µM) of 1.05. The relative viability ([2]; 0.03162 µM) was 1.06, the relative viability ([2]; 0.1 µM) was 1.04 and the relative viability ([2]; 0.3162 µM) was 1.07. It also gave a relative viability ([2]; 1 µM) of 0.979, a relative viability ([3]; 0.2 µM) of 0.944 and a relative viability ([3]; 0.6325 µM) of 0.976. For the same cell line, the relative viability ([3]; 2 µM) was 1.03, the relative viability ([3]; 6.325 µM) was 1.04 and the relative viability ([3]; 20 µM) was 0.0681. The relative viability ([4]; 0.08 µM) was 1, the relative viability ([4]; 0.253 µM) was 0.968 and the relative viability ([4]; 0.8 µM) was 1.07. The relative viability ([4]; 2.53 µM) was 1.06, the relative viability ([5]; 0.08 µM) was 0.987 and the relative viability ([5]; 0.253 µM) was 1.03. It also gave a relative viability ([5]; 0.8 µM) of 0.962, a relative viability ([5]; 2.53 µM) of 0.93 and a relative viability ([5]; 8 µM) of 0.869.
Cell Line NCI-H1395 has a relative viability ([1]; 0.01 µM) of 0.944, a relative viability ([1]; 0.03162 µM) of 0.987 and a relative viability ([1]; 0.1 µM) of 0.888. For the same cell line, the relative viability ([1]; 0.3162 µM) was 1.15, the relative viability ([1]; 1 µM) was 0.822 and the relative viability ([2]; 0.01 µM) was 0.731. For the same cell line, the relative viability ([2]; 0.03162 µM) was 0.894, the relative viability ([2]; 0.1 µM) was 0.979 and the relative viability ([2]; 0.3162 µM) was 0.869. For the same cell line, the relative viability ([2]; 1 µM) was 0.652, the relative viability ([3]; 0.2 µM) was 0.925 and the relative viability ([3]; 0.6325 µM) was 0.676. For the same cell line, the relative viability ([3]; 2 µM) was 0.866, the relative viability ([3]; 6.325 µM) was 0.964 and the relative viability ([3]; 20 µM) was 0.551. It also gave a relative viability ([4]; 0.08 µM) of 1.02, a relative viability ([4]; 0.253 µM) of 0.819 and a relative viability ([4]; 0.8 µM) of 0.901. It also gave a relative viability ([4]; 2.53 µM) of 1.16, a relative viability ([5]; 0.08 µM) of 0.816 and a relative viability ([5]; 0.253 µM) of 0.863. The relative viability ([5]; 0.8 µM) was 1.02, the relative viability ([5]; 2.53 µM) was 0.81 and the relative viability ([5]; 8 µM) was 1.23.
Work on NCI-H1651 yielded a relative viability ([1]; 0.01 µM) of 0.983, a relative viability ([1]; 0.03162 µM) of 0.976 and a relative viability ([1]; 0.1 µM) of 0.975. It also gave a relative viability ([1]; 0.3162 µM) of 0.998, a relative viability ([1]; 1 µM) of 0.944 and a relative viability ([2]; 0.01 µM) of 1.04. For the same cell line, the relative viability ([2]; 0.03162 µM) was 0.988, the relative viability ([2]; 0.1 µM) was 1.05 and the relative viability ([2]; 0.3162 µM) was 1.06. The relative viability ([2]; 1 µM) was 0.979, the relative viability ([3]; 0.2 µM) was 1.08 and the relative viability ([3]; 0.6325 µM) was 0.901. It also gave a relative viability ([3]; 2 µM) of 0.907, a relative viability ([3]; 6.325 µM) of 1.04 and a relative viability ([3]; 20 µM) of 0.946. It also gave a relative viability ([4]; 0.08 µM) of 1.03, a relative viability ([4]; 0.253 µM) of 0.912 and a relative viability ([4]; 0.8 µM) of 0.937. It also gave a relative viability ([4]; 2.53 µM) of 1.03, a relative viability ([5]; 0.08 µM) of 0.974 and a relative viability ([5]; 0.253 µM) of 1.13. It also gave a relative viability ([5]; 0.8 µM) of 0.983, a relative viability ([5]; 2.53 µM) of 0.941 and a relative viability ([5]; 8 µM) of 1.07.
